In patent publication US20210386367A1, “DEVICES AND SYSTEMS FOR GASTROINTESTINAL MICROBIOME DETECTION AND MANIPULATION” (Progenity, Inc., priority 2018, published 2021):
In brackets after ≈: the same amount, converted by molar mass.

Experiments:
[1] = tested on: Streptococcus spp. spontaneous mutants; experiment: organism not typed; format: cell-based
Protocol: (§1) Select isolates were subcultured onto agar containing drug at the selection concentration, were identified by MALDI, and were frozen for broth microdilution MIC testing as described below.
(§2) To determine whether colonies growing on drug selection plates had elevated MIC values to the selecting antibiotic, susceptibility testing by broth microdilution was conducted on isolated mutants following methodology recommended by CLSI (1), (2), and (3) “Performance Standards for Antimicrobial Susceptibility Testing; Twenty-Eighth Informational Supplement.,” CLSI document M100-S28, 2018.
(§3) All wells in columns 2 through 12 of a standard 96-well microdilution plate (Costar 3795) were filled with 150 μL of the appropriate diluent. Then, 300 μL of the test agents were added to the wells of column 1 of the plates at […] the highest final concentration to be tested. Serial two-fold dilutions were made across the rows through column 11 using the Biomek 2000. The wells of column 12 contained no drug and served as the growth control wells. This plate served as the “mother plate” from which selected MIC assay plates or “daughter plates” were made.
(§4) 2 μL of drug solution from each well of a mother plate was added to each corresponding well of the daughter plate in a single step. A standardized inoculum of each aerobic test organism was prepared per CLSI methods to equal a 0.5 McFarland standard, followed by a dilution of 1:20 in MHB II. The plates were then inoculated with 10 μL of the diluted inoculum using the Biomek 2000 from low to high drug concentration, resulting in a final concentration of approximately 5×10^5 CFU/mL. An un-inoculated plate was incubated for the purpose of assessing solubility of the drug in the test media.
(§5) The plates for the aerobic tests were stacked 3-4 high, covered with a sterile lid on the top plate, and incubated aerobically at 35° C. for 18-20 hr. The MIC was recorded as the lowest concentration of drug that inhibited visible growth of the organism.

[2] = tested on: Bacteroides spp. spontaneous mutants; experiment: Broth microdilution MIC of spontaneous mutants; format: cell-based
Protocol: as §1, §2, §3
Daughter plates for anaerobic organisms were transferred to a Bactron II anaerobic chamber (Sheldon Manufacturing Inc., Cornelius, Oreg.) to reduce for 1 hour prior to inoculation. The inoculum for each organism was prepared in the anaerobic chamber and dispensed into sterile disposable reservoirs. Inoculation was completed using a multichannel pipette to transfer 10 μL of the inoculum into each well of the daughter plate. This yielded a final cell concentration in the daughter plates of approximately 1×10^6 CFU/mL.

[3] = tested on: E. coli spontaneous mutants; experiment: Broth microdilution MIC of spontaneous mutants; format: cell-based, Escherichia coli
Protocol: as §1, §2, §3, §4, §5

Compound `COc1c(N2C[C@@H]3CCCN[C@@H]3C2)c(F)cc2c(=O)c(C(=O)O)cn(C3CC3)c12` [MOX] has an MIC ([1]; S. agaloctiae ATCC 13813, selected on rifaximin 4X MIC, Colony A) of 0.06 µg/mL (≈ 0.149 µM), an MIC ([1]; S. agaloctiae ATCC 13813, selected on rifaximin 4X MIC, Colony B) of 0.06 µg/mL (≈ 0.149 µM) and an MIC ([1]; S. agaloctiae ATCC 13813, selected on rifaximin 8X MIC, Colony A) of 0.06 µg/mL (≈ 0.149 µM). For the same compound, the MIC ([1]; S. agaloctiae ATCC 13813, selected on rifaximin 8X MIC, Colony B) was 0.03 µg/mL (≈ 0.0747 µM), the MIC ([1]; S. agaloctiae ATCC 13813 Parent) was 0.06 µg/mL (≈ 0.149 µM) and the MIC ([1]; S. pneumoniae ATCC 49619, selected on rifaximin 4X MIC, Colony A) was 0.06 µg/mL (≈ 0.149 µM). It also gave an MIC ([1]; S. pneumoniae ATCC 49619, selected on rifaximin 4X MIC, Colony B) of 0.06 µg/mL (≈ 0.149 µM), an MIC ([1]; S. pneumoniae ATCC 49619, selected on rifaximin 8X MIC, Colony A) of 0.06 µg/mL (≈ 0.149 µM) and an MIC ([1]; S. pneumoniae ATCC 49619, selected on rifaximin 8X MIC, Colony B) of 0.06 µg/mL (≈ 0.149 µM). It also gave an MIC ([1]; S. pneumoniae ATCC 49619 Parent) of 0.12 µg/mL (≈ 0.299 µM), an MIC ([1]; S. pyogenes ATCC 49399, selected on rifaximin 4X MIC, Colony A) of 0.06 µg/mL (≈ 0.149 µM) and an MIC ([1]; S. pyogenes ATCC 49399, selected on rifaximin 4X MIC, Colony B) of 0.06 µg/mL (≈ 0.149 µM). It also gave an MIC ([1]; S. pyogenes ATCC 49399, selected on rifaximin 8X MIC, Colony A) of 0.06 µg/mL (≈ 0.149 µM), an MIC ([1]; S. pyogenes ATCC 49399, selected on rifaximin 8X MIC, Colony B) of 0.06 µg/mL (≈ 0.149 µM) and an MIC ([1]; S. pyogenes ATCC 49399 Parent) of 0.06 µg/mL (≈ 0.149 µM). It also gave an MIC ([2]; B. fragilis ATCC 25285, selected on rifaximin 4X MIC, Colony A) of 0.06 µg/mL, an MIC ([2]; B. fragilis ATCC 25285, selected on rifaximin 4X MIC, Colony B) of 0.12 µg/mL and an MIC ([2]; B. fragilis ATCC 25285, selected on rifaximin 8X MIC, Colony A) of 0.12 µg/mL. It also gave an MIC ([2]; B. fragilis ATCC 25285, selected on rifaximin 8X MIC, Colony B) of 0.12 µg/mL, an MIC ([2]; B. fragilis ATCC 25285 Parent) of 0.06 µg/mL and an MIC ([2]; B. ovatus MMX 3503, selected on rifaximin 4X MIC, Colony A) of 2 µg/mL. It also gave an MIC ([2]; B. ovatus MMX 3503, selected on rifaximin 4X MIC, Colony B) of 0.5 µg/mL, an MIC ([2]; B. ovatus MMX 3503, selected on rifaximin 8X MIC, Colony A) of 1 µg/mL and an MIC ([2]; B. ovatus MMX 3503, selected on rifaximin 8X MIC, Colony B) of 1 µg/mL. For the same compound, the MIC ([2]; B. ovatus MMX 3503 Parent) was 1 µg/mL, the MIC ([2]; B. vulgatus ATCC 8482, selected on ceftriaxone 4X MIC, Colony A) was 0.5 µg/mL and the MIC ([2]; B. vulgatus ATCC 8482, selected on ceftriaxone 4X MIC, Colony B) was 0.5 µg/mL. It also gave an MIC ([2]; B. vulgatus ATCC 8482, selected on rifaximin 4X MIC, Colony A) of 0.5 µg/mL, an MIC ([2]; B. vulgatus ATCC 8482, selected on rifaximin 4X MIC, Colony B) of 0.25 µg/mL and an MIC ([2]; B. vulgatus ATCC 8482, selected on rifaximin 8X MIC, Colony A) of 0.5 µg/mL. It also gave an MIC ([2]; B. vulgatus ATCC 8482, selected on rifaximin 8X MIC, Colony B) of 0.5 µg/mL, an MIC ([2]; B. vulgatus ATCC 8482 Parent (Table 50)) of 0.5 µg/mL and an MIC ([2]; B. vulgatus ATCC 8482 Parent (Table 54)) of 0.5 µg/mL. It also gave an MIC ([3]; E. coli ATCC 25922, selected on rifaximin 4X MIC, Colony A) of 0.015 µg/mL, an MIC ([3]; E. coli ATCC 25922, selected on rifaximin 4X MIC, Colony B) of 0.015 µg/mL and an MIC ([3]; E. coli ATCC 25922, selected on rifaximin 8X MIC, Colony A) of 0.015 µg/mL. It also gave an MIC ([3]; E. coli ATCC 25922, selected on rifaximin 8X MIC, Colony B) of 0.015 µg/mL, an MIC ([3]; E. coli ATCC 25922 Parent (Table 52)) of 0.03 µg/mL and an MIC ([3]; E. coli ATCC 35218, selected on rifaximin 4X MIC, Colony A) of 0.03 µg/mL. The MIC ([3]; E. coli ATCC 35218, selected on rifaximin 4X MIC, Colony B) was 0.03 µg/mL, the MIC ([3]; E. coli ATCC 35218, selected on rifaximin 8X MIC, Colony A) was 0.03 µg/mL and the MIC ([3]; E. coli ATCC 35218, selected on rifaximin 8X MIC, Colony B) was 0.03 µg/mL. The MIC ([3]; E. coli ATCC 35218 Parent (Table 52)) was 0.03 µg/mL, the MIC ([3]; E. coli MMX 1312, selected on ceftriaxone 4X MIC, Colony A) was 0.03 µg/mL and the MIC ([3]; E. coli MMX 1312, selected on ceftriaxone 4X MIC, Colony B) was 0.06 µg/mL. It also gave an MIC ([3]; E. coli MMX 1312, selected on ceftriaxone 4X MIC, Colony C) of 0.03 µg/mL, an MIC ([3]; E. coli MMX 1312, selected on ceftriaxone 8X MIC, Colony A) of 0.03 µg/mL and an MIC ([3]; E. coli MMX 1312, selected on ceftriaxone 8X MIC, Colony B) of 0.03 µg/mL. It also gave an MIC ([3]; E. coli MMX 1312, selected on ceftriaxone 8X MIC, Colony C) of 0.03 µg/mL, an MIC ([3]; E. coli MMX 1312, selected on rifaximin 4X MIC, Colony A) of 0.03 µg/mL and an MIC ([3]; E. coli MMX 1312, selected on rifaximin 4X MIC, Colony B) of 0.03 µg/mL. The MIC ([3]; E. coli MMX 1312, selected on rifaximin 8X MIC, Colony A) was 0.03 µg/mL, the MIC ([3]; E. coli MMX 1312, selected on rifaximin 8X MIC, Colony B) was 0.03 µg/mL and the MIC ([3]; E. coli MMX 1312 Parent) was 0.03 µg/mL. It also gave an MIC ([3]; E. coli MMX 1312 Parent (Table 49)) of 0.03 µg/mL, an MIC ([3]; E. coli MMX 1312 Parent (Table 52)) of 0.03 µg/mL and an MIC ([3]; E. coli MMX 1312 mutant selected on meropenem 4X MIC, colony A) of 0.03 µg/mL. The MIC ([3]; E. coli MMX 1312 mutant selected on meropenem 4X MIC, colony B) was 0.03 µg/mL, the MIC ([3]; E. coli MMX 1312 mutant selected on meropenem 4X MIC, colony C) was 0.03 µg/mL and the MIC ([3]; E. coli MMX 1312 mutant selected on meropenem 8X MIC, colony A) was 0.03 µg/mL. It also gave an MIC ([3]; E. coli MMX 1312 mutant selected on meropenem 8X MIC, colony B) of 0.03 µg/mL and an MIC ([3]; E. coli MMX 1312 mutant selected on meropenem 8X MIC, colony C) of 0.03 µg/mL.
